The molecules below were run against KRAS G12V (Homo sapiens (Human), UniProt P01116+P62937, G12V) (assay: Ras-Raf (BRAF RBD) disruption / FRET / MOA assay, KRAS G12V). Conditions: read-out: IC50* KRAS G12V FRET data.
Type: biochemical
Outline: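 A 10-point, 3-fold dilution series topping at 30 μM final was incubated 3 h at 25° C with the Ras/cyclophilin A/BRAF RBD mixture.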

Sequence of KRAS G12V (P01116-2 other isoform, or with tags, fused parts or gaps G12V): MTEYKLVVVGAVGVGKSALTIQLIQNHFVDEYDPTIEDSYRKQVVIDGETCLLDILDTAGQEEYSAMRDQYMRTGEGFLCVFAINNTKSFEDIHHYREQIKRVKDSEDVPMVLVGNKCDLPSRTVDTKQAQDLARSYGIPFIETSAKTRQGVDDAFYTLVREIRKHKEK
Sequence of KRAS G12V (P62937 whole entry): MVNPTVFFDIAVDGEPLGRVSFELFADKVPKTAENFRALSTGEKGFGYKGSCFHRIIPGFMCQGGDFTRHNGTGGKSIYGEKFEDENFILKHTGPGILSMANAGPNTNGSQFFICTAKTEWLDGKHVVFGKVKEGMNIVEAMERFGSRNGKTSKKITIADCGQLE

SMILES | IC50
C/C=C/C(=O)N1CC2(CCN(C(=O)N(C)[C@H](C(=O)N[C@H]3Cc4nc(cs4)-c4ccc5c(c4)c(c(-c4cccnc4[C@H](C)OC)n5CC)CC(C)(C)COC(=O)[C@@H]4CCCN(N4)C3=O)C(C)C)CC2)C1 (atropisomer, axis not shown) [Example A671] | 0.1 to 1 µM
C=CC(=O)N1CC[C@H](C(=O)N(C)[C@H](C(=O)N[C@H]2Cc3nc(ns3)-c3ccc4c(c3)c(c(-c3cncnc3)n4CC)CC(C)(C)COC(=O)[C@@H]3CCCN(N3)C2=O)C(C)C)C1 [Example A285] | > 10 µM
C=CC(=O)N1CC[C@H]2[C@@H](C1)CN2C(=O)N(C)[C@H](C(=O)N[C@H]1Cc2nc(cs2)-c2ccc3c(c2)c(c(-c2cccnc2[C@H](C)OC)n3CC)CC(C)(C)COC(=O)[C@@H]2CCCN(N2)C1=O)C(C)C (atropisomer, axis not shown) [Example A687] | 0.1 to 1 µM
CCn1c(-c2cccnc2[C@H](C)OC)c2c3cc(ccc31)-c1cccc(c1)C[C@H](NC(=O)[C@H](C(C)C)N1CC[C@@]3(CCN(C(=O)C#C[C@H]4COCCN4C)C3)C1=O)C(=O)N1CCC[C@H](N1)C(=O)OCC(C)(C)C2 (atropisomer, axis not shown) [Example A551] | 1 to 10 µM
C=CC(=O)N1CC[C@@H]2[C@H]1CN2C(=O)N(C)[C@H](C(=O)N[C@H]1Cc2nc(cs2)-c2ccc3c(c2)c(c(-c2cccnc2[C@H](C)OC)n3CC)CC(C)(C)COC(=O)[C@@H]2CCCN(N2)C1=O)C(C)C (atropisomer, axis not shown) [Example A546] | 0.1 to 1 µM
C=CC(=O)N1CC[C@H](C(=O)N(C)[C@H](C(=O)N[C@H]2Cc3cc(O)cc(c3)-c3ccc4c(c3)c(c(-c3cnn5c3[C@@H](OC)CCC5)n4CC)CC(C)(C)COC(=O)[C@@H]3CCCN(N3)C2=O)C(C)C)C1 [Example A300] | 0.01 to 0.1 µM
C=CC(=O)N(C)CC1CN(C(=O)N(C)[C@H](C(=O)N[C@H]2Cc3nc(cs3)-c3ccc4c(c3)c(c(-c3cccnc3[C@H](C)OC)n4CC)CC(C)(C)COC(=O)[C@@H]3CCCN(N3)C2=O)C(C)C)C1 (atropisomer, axis not shown) [Example A368] | 0.01 to 0.1 µM
C=CC(=O)N1CCO[C@H]2CCN(C(=O)N(C)[C@H](C(=O)N[C@H]3Cc4nc(cs4)-c4ccc5c(c4)c(c(-c4cccnc4[C@H](C)OC)n5CC)CC(C)(C)COC(=O)[C@@H]4CCCN(N4)C3=O)C(C)C)C[C@H]21 (atropisomer, axis not shown) [Example A580] | 0.1 to 1 µM
CCn1c(-c2cccnc2[C@H](C)OC)c2c3cc(ccc31)-c1csc(n1)C[C@H](NC(=O)[C@@H](COC1CN(C(=O)C#CC(C)(C)N(C)C)C1)OC)C(=O)N1CCC[C@H](N1)C(=O)OCC(C)(C)C2 (atropisomer, axis not shown) [Example A660] | 0.1 to 1 µM
CO[C@@H](C)c1ncccc1-c1c2c3cc(ccc3n1CC(F)(F)F)-c1cnc(o1)C[C@H](NC(=O)[C@H](C(C)C)N(C)C(=O)[C@H]1CCN(C(=O)C#CC(C)(C)N(C)C)C1)C(=O)N1CCC[C@H](N1)C(=O)OCC(C)(C)C2 (atropisomer, axis not shown) [Example A707] | 1 to 10 µM
C=CC(=O)N(C)CCC1CCN(C(=O)N(C)[C@H](C(=O)N[C@H]2Cc3nc(cs3)-c3ccc4c(c3)c(c(-c3cccnc3[C@H](C)OC)n4CC)CC(C)(C)COC(=O)[C@@H]3CCCN(N3)C2=O)C(C)C)CC1 (atropisomer, axis not shown) [Example A621] | 0.01 to 0.1 µM
C=CC(=O)N(C)[C@@H]1CCN(C(=O)N(C)[C@H](C(=O)N[C@H]2Cc3nc(cs3)-c3ccc4c(c3)c(c(-c3cccnc3[C@H](C)OC)n4CC)CC(C)(C)COC(=O)[C@@H]3CCCN(N3)C2=O)C(C)C)C1 (atropisomer, axis not shown) [Example A416] | 0.1 to 1 µM
CO[C@@H](C)c1ncccc1-c1c2c3cc(ccc3n1CC(F)(F)F)-c1nc(ns1)C[C@H](NC(=O)[C@@H](COC1CN(C(=O)C#CC(C)(C)N(C)C)C1)C(C)C)C(=O)N1CCC[C@H](N1)C(=O)OCC(C)(C)C2 (atropisomer, axis not shown) [Example A590, (2R)-2-(((1-(4-(dimethylamino)-4-methylpent-2-ynoyl)azetidin-3-yl)oxy)methyl)-N-((6^3S,4S,Z)-1^2-(2-((S)-1-methoxyethyl)pyridin-3-yl)-10,10-dimethyl-5,7-dioxo-1^1-(2,2,2-trifluoroethyl)-6^1,6^2,6^3,6^4,6^5,6^6-hexahydro-1^1H-8-oxa-2(5,3)-thiadiazola-1(5,3)-indola-6(1,3)-pyridazinacycloundecaphane-4-yl)-3-methylbutanamide] | 1 to 10 µM
C=CC(=O)N(C)C1CCN(C(=O)N(C)[C@H](C(=O)N[C@H]2Cc3nc(cs3)-c3ccc4c(c3)c(c(-c3cccnc3[C@H](C)OC)n4CC)CC(C)(C)COC(=O)[C@@H]3CCCN(N3)C2=O)C(C)C)CC1 (atropisomer, axis not shown) [Example A383] | 0.01 to 0.1 µM
C=CC(=O)N(C)[C@@H]1CCCN(C(=O)N(C)[C@H](C(=O)N[C@H]2Cc3nc(cs3)-c3ccc4c(c3)c(c(-c3cccnc3[C@H](C)OC)n4CC)CC(C)(C)COC(=O)[C@@H]3CCCN(N3)C2=O)C(C)C)C1 (atropisomer, axis not shown) [Example A382] | 0.1 to 1 µM
C=CC(=O)N1CCO[C@H]2CN(C(=O)N(C)[C@H](C(=O)N[C@H]3Cc4cccc(n4)-c4ccc5c(c4)c(c(-c4cccnc4[C@H](C)OC)n5CC)CC(C)(C)COC(=O)[C@@H]4CCCN(N4)C3=O)C(C)C)C[C@H]21 (atropisomer, axis not shown) [Example A597] | 1 to 10 µM

SMILES | IC50
CCn1c(-c2cccnc2[C@H](C)OC)c2c3cc(ccc31)N1CCO[C@@H](C[C@H](NC(=O)[C@H](C(C)C)N(C)C(=O)[C@@]3(F)CCC(C(=O)C#CC(C)(C)N4CCC4)C3)C(=O)N3CCC[C@H](N3)C(=O)OCC(C)(C)C2)C1 (stereo partly shown) [Example A726] | 1 to 10 µM
C=CC(=O)N1CCN(C(=O)N(C)[C@H](C(=O)N[C@H]2Cc3nc(cs3)-c3ccc4c(c3)c(c(-c3cccnc3[C@H](C)OC)n4CC)CC(C)(C)COC(=O)[C@@H]3CCCN(N3)C2=O)C(C)C)CC1 (atropisomer, axis not shown) [Example A491] | 0.01 to 0.1 µM
C=CC(=O)N1CCN(C(=O)N(C)[C@H](C(=O)N[C@H]2Cc3cc(O)cc(c3)-c3ccc4c(c3)c(c(-c3cccnc3[C@H](C)OC)n4CC)CC(C)(C)COC(=O)[C@@H]3CCCN(N3)C2=O)C(C)C)CC1 (atropisomer, axis not shown) [Example A262] | 0.01 to 0.1 µM
C=CC(=O)N1CCC(C(=O)N(C)[C@H](C(=O)N[C@H]2Cc3cc(CF)cc(c3)-c3ccc4c(c3)c(c(-c3cccnc3[C@H](C)OC)n4CC(F)(F)F)CC(C)(C)COC(=O)[C@@H]3CCCN(N3)C2=O)C(C)C)C1 (stereo partly shown) [Example A659] | 0.1 to 1 µM
C=CC(=O)N1CCN(C(=O)N(C)[C@H](C(=O)N[C@H]2Cc3nc(cs3)-c3ccc4c(c3)c(c(-c3cccnc3[C@H](C)OC)n4CC)CC(C)(C)COC(=O)[C@@H]3CCCN(N3)C2=O)C(C)C)[C@@H]2C[C@@H]21 (atropisomer, axis not shown) [Example A736] | 0.1 to 1 µM
C=C(OC)C(=O)N1CC2(CCN(C(=O)N(C)[C@H](C(=O)N[C@H]3Cc4nc(cs4)-c4ccc5c(c4)c(c(-c4cccnc4[C@H](C)OC)n5CC)CC(C)(C)COC(=O)[C@@H]4CCCN(N4)C3=O)C(C)C)CC2)C1 (atropisomer, axis not shown) [Example A681] | 0.1 to 1 µM
C=CC(=O)N1CC[C@H](C(=O)N(C)[C@H](C(=O)N[C@H]2Cc3cccc(c3)-c3ccc4c(c3)c(c(-c3cccnc3[C@H](C)OC)n4CC(F)(F)F)CC(C)(C)COC(=O)[C@@H]3CCCN(N3)C2=O)C(C)C)C1 (atropisomer, axis not shown) [Example A332] | 1 to 10 µM
C=CC(=O)C1CC[C@H](C(=O)N(C)[C@H](C(=O)N[C@H]2Cc3cc(O)cc(c3)-c3ccc4c(c3)c(c(-c3cnn(C)c3[C@H](C)OC)n4CC)CC(C)(C)COC(=O)[C@@H]3CCCN(N3)C2=O)C(C)C)C1 (stereo partly shown) [Example A166] | 0.1 to 1 µM
CCn1c(-c2cccnc2[C@H](C)OC)c2c3cc(ccc31)-c1cccc(c1)C[C@H](NC(=O)[C@H](C(C)C)N1CO[C@@]3(CCN(C(=O)/C=C/CN(C)C)C3)C1=O)C(=O)N1CCC[C@H](N1)C(=O)OCC(C)(C)C2 (atropisomer, axis not shown) [Example A558] | 1 to 10 µM
C=CC(=O)N1CCC(F)(C(=O)N(C)[C@H](C(=O)N[C@H]2Cc3nc(cs3)-c3ccc4c(c3)c(c(-c3cccnc3[C@H](C)OC)n4CC)CC(C)(C)COC(=O)[C@@H]3CCCN(N3)C2=O)C(C)C)CC1 (atropisomer, axis not shown) [Example A700] | 0.1 to 1 µM
CCn1c(-c2cccnc2[C@H](C)OC)c2c3cc(ccc31)-c1csc(n1)C[C@H](NC(=O)[C@H](C(C)C)N(C)C(=O)N1CCC3(CC1)CN(C(=O)/C=C/CN1CCCCC1)C3)C(=O)N1CCC[C@H](N1)C(=O)OCC(C)(C)C2 (atropisomer, axis not shown) [Example A670] | 0.1 to 1 µM
CCn1c(-c2cccnc2[C@H](C)OC)c2c3cc(ccc31)-c1cccc(c1)C[C@H](NC(=O)[C@H](C(C)C)N1CO[C@]3(CCN(C(=O)C#CC(C)(C)N4CCC4)C3)C1=O)C(=O)N1CCC[C@H](N1)C(=O)OCC(C)(C)C2 (atropisomer, axis not shown) [Example A351] | 1 to 10 µM
CO[C@@H](C)c1ncccc1-c1c2c3nc(ccc3n1CC(F)(F)F)-c1cccc(c1)C[C@H](NC(=O)[C@@H](COC1CN(C(=O)C#CC(C)(C)N(C)C)C1)C(C)C)C(=O)N1CCC[C@H](N1)C(=O)OCC(C)(C)C2 (atropisomer, axis not shown) [Example A724] | > 10 µM
CO[C@@H](COC1CN(C(=O)C#CC(C)(C)N(C)C)C1)C(=O)N[C@H]1Cc2coc(n2)-c2ccc3c(c2)c(c(-c2cccnc2[C@H](C)OC)n3CC(F)(F)F)CC(C)(C)COC(=O)[C@@H]2CCCN(N2)C1=O (atropisomer, axis not shown) [Example A579] | 1 to 10 µM
CCn1c(-c2cccnc2[C@H](C)OC)c2c3cc(ccc31)-c1csc(n1)C[C@H](NC(=O)[C@H](C(C)C)N(C)C(=O)N1CCC3(CC1)CN(C(=O)/C=C/CN1CCOCC1)C3)C(=O)N1CCC[C@H](N1)C(=O)OCC(C)(C)C2 (atropisomer, axis not shown) [Example A669] | 0.1 to 1 µM

Source: patent publication US11566007B2, “Ras inhibitors” (Revolution Medicines, Inc., priority 2019, dated 2023)
